Source: PubChem BioAssay (NCI)
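Test compounds were applied to cells in 96-well plates for 48 hours at 5 doses. Here, GI50 denotes the concentration required for 50% inhibition of growth. At the TGI there is no net growth.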

What was measured:
Assay in all cases: inhibition of tumour cell growth, NCI panel, 48 h
[1] = tested on: U251 CNS
[2] = tested on: COLO 205 colon
[3] = tested on: HCC-2998 colon
[4] = tested on: NCI-H226 lung
[5] = tested on: MCF7 breast
[6] = tested on: MDA-MB-435
[7] = tested on: SN12C renal
[8] = tested on: KM12 colon
[9] = tested on: ACHN renal
[10] = tested on: NCI-H460 lung
[11] = tested on: SK-MEL-2 melanoma
[12] = tested on: RXF 393 renal
[13] = tested on: LOX IMVI melanoma
[14] = tested on: DU-145 prostate
[15] = tested on: RPMI-8226 leukemia
[16] = tested on: CCRF-CEM leukemia
[17] = tested on: BT-549 breast
[18] = tested on: OVCAR-3 ovarian
[19] = tested on: SK-MEL-28 melanoma
[20] = tested on: HS 578T breast
[21] = tested on: SR leukemia
[22] = tested on: SK-OV-3 ovarian
[23] = tested on: TK-10 renal
[24] = tested on: HT29 colon
[25] = tested on: EKVX NSCLC
[26] = tested on: HOP-92 NSCLC
[27] = tested on: A549 NSCLC
[28] = tested on: MALME-3M melanoma
[29] = tested on: CAKI-1 renal
[30] = tested on: HOP-62 NSCLC
[31] = tested on: SF-268 CNS
[32] = tested on: OVCAR-4 ovarian
[33] = tested on: SNB-75 CNS
[34] = tested on: T-47D breast
[35] = tested on: MDA-MB-231 breast
[36] = tested on: SNB-19 CNS
[37] = tested on: UACC-257 melanoma
[38] = tested on: HCT-116 colon
[39] = tested on: A498 renal
[40] = tested on: HCT-15 colon
[41] = tested on: SF-539 CNS
[42] = tested on: HL-60(TB) leukemia
[43] = tested on: MOLT-4 leukemia
[44] = tested on: UO-31 renal
[45] = tested on: OVCAR-8 ovarian
[46] = tested on: SW-620 colon
[47] = tested on: 786-0 renal
[48] = tested on: OVCAR-5 ovarian
[49] = tested on: SF-295 CNS
[50] = tested on: IGROV1 ovarian
[51] = tested on: PC-3 prostate
[52] = tested on: UACC-62 melanoma
[53] = tested on: NCI/ADR-RES ovarian
[54] = tested on: NCI-H522 lung
[55] = tested on: NCI-H23 lung
[56] = tested on: SK-MEL-5 melanoma
[57] = tested on: M14 melanoma

[N-]=[N+]=NCCCn1c2c(c3ccccc3c1=O)C(=O)c1cc(Br)ccc1-2
GI50 [1]: > 100 µM
TGI [1]: > 100 µM
GI50 [2]: > 100 µM
TGI [2]: > 100 µM
GI50 [3]: > 100 µM
TGI [3]: > 100 µM
GI50 [4]: > 100 µM
TGI [4]: > 100 µM
GI50 [5]: 39.8 µM
TGI [5]: > 100 µM
GI50 [6]: > 100 µM
TGI [6]: > 100 µM
GI50 [7]: > 100 µM
TGI [7]: > 100 µM
GI50 [8]: > 100 µM
TGI [8]: > 100 µM
GI50 [9]: > 100 µM
TGI [9]: > 100 µM
GI50 [10]: 46.8 µM
TGI [10]: > 100 µM
GI50 [11]: > 100 µM
TGI [11]: > 100 µM
GI50 [12]: > 100 µM
TGI [12]: > 100 µM
GI50 [13]: > 100 µM
TGI [13]: > 100 µM
GI50 [14]: > 100 µM
TGI [14]: > 100 µM
GI50 [15]: > 100 µM
TGI [15]: > 100 µM
GI50 [16]: 50.8 µM
TGI [16]: > 100 µM
GI50 [17]: > 100 µM
TGI [17]: > 100 µM
GI50 [18]: > 100 µM
TGI [18]: > 100 µM
GI50 [19]: > 100 µM
TGI [19]: > 100 µM
GI50 [20]: > 100 µM
TGI [20]: > 100 µM
GI50 [21]: 9.82 µM
TGI [21]: 51.7 µM
GI50 [22]: > 100 µM
TGI [22]: > 100 µM
GI50 [23]: > 100 µM
TGI [23]: > 100 µM
GI50 [24]: > 100 µM
TGI [24]: > 100 µM
GI50 [25]: > 100 µM
TGI [25]: > 100 µM
GI50 [26]: 9.42 µM
TGI [26]: 92.4 µM
GI50 [27]: > 100 µM
TGI [27]: > 100 µM
GI50 [28]: > 100 µM
TGI [28]: > 100 µM
GI50 [29]: > 100 µM
TGI [29]: > 100 µM
GI50 [30]: > 100 µM
TGI [30]: > 100 µM
GI50 [31]: > 100 µM
TGI [31]: > 100 µM
GI50 [32]: > 100 µM
TGI [32]: > 100 µM
GI50 [33]: 45.1 µM
TGI [33]: > 100 µM
GI50 [34]: > 100 µM
TGI [34]: > 100 µM
GI50 [35]: > 100 µM
TGI [35]: > 100 µM
GI50 [36]: > 100 µM
TGI [36]: > 100 µM
GI50 [37]: > 100 µM
TGI [37]: > 100 µM
GI50 [38]: > 100 µM
TGI [38]: > 100 µM
GI50 [39]: > 100 µM
TGI [39]: > 100 µM
GI50 [40]: > 100 µM
TGI [40]: > 100 µM
GI50 [41]: > 100 µM
TGI [41]: > 100 µM
GI50 [42]: > 100 µM
TGI [42]: > 100 µM
GI50 [43]: 28.9 µM
TGI [43]: > 100 µM
GI50 [44]: > 100 µM
TGI [44]: > 100 µM
GI50 [45]: > 100 µM
TGI [45]: > 100 µM
GI50 [46]: > 100 µM
TGI [46]: > 100 µM
GI50 [47]: > 100 µM
TGI [47]: > 100 µM
GI50 [48]: > 100 µM
TGI [48]: > 100 µM
GI50 [49]: > 100 µM
TGI [49]: > 100 µM
GI50 [50]: > 100 µM
TGI [50]: > 100 µM
GI50 [51]: > 100 µM
TGI [51]: > 100 µM
GI50 [52]: > 100 µM
TGI [52]: > 100 µM
GI50 [53]: > 100 µM
TGI [53]: > 100 µM
GI50 [54]: > 100 µM
TGI [54]: > 100 µM
GI50 [55]: > 100 µM
TGI [55]: > 100 µM
GI50 [56]: > 100 µM
TGI [56]: > 100 µM
GI50 [57]: > 100 µM
TGI [57]: > 100 µM
